“And” between values parts separate entries of the source, which are not always exact repeats. Equal values may be shown once. “Also recorded” adds a separate entry of the source.
What was measured:
[1] = tested on: permeabilised extensor digitorum longus muscle fibres; experiment: Respiratory complex activities in permeabilized extensor digitorum longus muscle fibres; assay type: in vivo, mice; conditions: three weeks, 5 mg/kg
Protocol: Permeabilized extensor digitorum longus (EDL) fibres were prepared and mitochondrial function analyzed according to published protocols with some modifications[71],[72]. Briefly, EDL muscles were dissected tendon-to-tendon into ice-cold isolation buffer A (10 mM Ca-EGTA buffer, 20 mM imidazole, 20 mM taurine, 49 mM K-MES, 3 mM K2HPO4, 9.5 mM MgCl2, 5.7 mM ATP, 15 mM phosphocreatine, 1 μM leupeptin, pH 7.1) and fibres were prepared immediately. Fibre bundles (~3 mg wet weight) were treated with saponin (50 μg/mL) for 20 min at 4 °C and subsequently washed in cold respiration medium B (0.5 mM EGTA, 3 mM MgCl2.6H2O, 20 mM taurine, 10 mM KH2PO4, 20 mM HEPES, 0.1% BSA, 15 mM potassium-lactobionate, 110 mM mannitol, 0.3 mM dithiothreitol, pH 7.1). […] Fibres were recovered after polarography and results were expressed as nmoles of O2/min/mg of tissue. Mitochondrial membrane integrity was verified by cytochrome c release test[71],[72].

[2] = target: recombinant human sphingosine kinase 1 (Homo sapiens, UniProt Q9NYA1); conditions: 10 μM
Protocol: Sphingosine kinase assays were performed using fluorescent NBD-dihydrosphingosine[63],[64]. […] Reactions were stopped with 100 μL methanol, and 5 μL amounts were resolved on Silica Gel 60 thin layer chromatography (TLC) plates using butanol:acetic acid:water (3:1:1). The fluorescent NBD-dihydrosphingosine 1-phosphate band was quantified using a BioRad ChemiDoc imaging system with excitation by UV light.
Supplementary Figure 2. […] Activity of recombinant
human sphingosine kinases 1 and 2 (SphK1 and 2) was assessed in the presence of 10 µM
Activity is expressed as a percentage of the vehicle control.

soleus muscle strips = experiment: Palmitate oxidation in soleus muscle strips pre-treated in vitro; parameters: species or system mice; conditions: 1.5 h in vitro, 1 μM
Protocol: After a 30 min pre-incubation, muscles were transferred into vials containing 0.5 mCi/mL of [1-^14C]-palmitate in modified Krebs-Henseleit buffer for another 1 h. The reaction was stopped by removal of the muscles and addition of 1 M perchloric acid to the reaction mixture. ^14C-labelled CO2 was quantified as described above. The muscles were blotted dry and snap frozen in liquid nitrogen for subsequent lipid extraction and TLC. Muscles were homogenized using a Polytron (Kinematica, Littau-Lucerne, Switzerland) in 1.5 mL 2:1 chloroform-methanol (v/v). […] The upper aqueous phase was used to quantify ASM, and the lower organic phase was collected and dried under stream of N2, then reconstituted in hexane and spotted on a Silica Gel 60 F254 TLC plate. The TLC plate was developed in hexane/diethyl ether/glacial acetic acid (85:15:1), then air dried. TAG bands were visualised using iodine vapour staining, using an external standard to mark their position, then scraped into vials and quantified by liquid scintillation counting.

cerebellum = experiment: Ceramide, SM and HexCer levels in cerebellum; assay type: in vivo, mice; conditions: individual mice, raw data for Supplementary Figure 7;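 for Cer 18:1/18:0 content of cerebellum: pmol per mg cerebellum tissue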;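 for Cer 18:1/24:0 content of cerebellum: pmol per mg cerebellum tissue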;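 for Cer 18:1/24:1 content of cerebellum: pmol per mg cerebellum tissue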;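 for Cer 18:2/18:0 content of cerebellum: pmol per mg cerebellum tissue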;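 for HexCer 18:1 content of cerebellum: pmol per mg cerebellum tissue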;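 for HexCer 20:1 content of cerebellum: pmol per mg cerebellum tissue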;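 for HexCer 22:1 content of cerebellum: pmol per mg cerebellum tissue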;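 for HexCer 24:0 content of cerebellum: pmol per mg cerebellum tissue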;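 for SM 32:1 content of cerebellum: pmol per mg cerebellum tissue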;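 for SM 34:2 content of cerebellum: pmol per mg cerebellum tissue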;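 for SM 36:1 content of cerebellum: pmol per mg cerebellum tissue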;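 for SM 36:2 content of cerebellum: pmol per mg cerebellum tissue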;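 for SM 40:1 content of cerebellum: pmol per mg cerebellum tissue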;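 for SM 40:2 content of cerebellum: pmol per mg cerebellum tissue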;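 for SM 42:1 content of cerebellum: pmol per mg cerebellum tissue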;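 for SM 42:2 content of cerebellum: pmol per mg cerebellum tissue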
Source text: Supplementary Figure 7. […] Ceramide, SM, and HexCer […]
levels in the cerebellum of vehicle- or P053-treated mice on a chow or HFD. N = 10 mice per group, except for chow vehicle group (n = 9). Mean ± SEM shown. No lipids were […]
comparisons. C18:0 HexCer was 45% lower in the P053-treated compared to the vehicle-treated HFD group (unadjusted P value = 0.02; adjusted value P = 0.16). Raw data for these figures is provided in Supplementary Data File 1.

recombinant human sphingosine kinase 1, sequence (Q9NYA1 whole entry): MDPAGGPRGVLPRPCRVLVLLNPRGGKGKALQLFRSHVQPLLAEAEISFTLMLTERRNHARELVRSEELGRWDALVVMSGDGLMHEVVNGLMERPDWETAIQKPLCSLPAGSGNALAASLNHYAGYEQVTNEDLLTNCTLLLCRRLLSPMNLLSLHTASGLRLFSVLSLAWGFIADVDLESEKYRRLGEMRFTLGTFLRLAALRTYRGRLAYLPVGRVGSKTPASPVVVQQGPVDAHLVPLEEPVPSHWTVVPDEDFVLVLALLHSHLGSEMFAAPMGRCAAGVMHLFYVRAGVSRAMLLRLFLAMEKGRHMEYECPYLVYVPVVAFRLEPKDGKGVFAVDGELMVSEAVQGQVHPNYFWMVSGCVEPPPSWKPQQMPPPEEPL

With `C[C@@](N)(CO)CCc1ccc(OCc2ccc(Cl)c(Cl)c2)cc1` [P053, (S)-2-amino-4-(4-(3,4-dichlorobenzyloxy)phenyl)-2-methylbutan-1-ol] the “complex II activity” value [1] was “trend for an increase”, the “respiratory activity with complex I and IV substrates” value [1] was “significant increase” and the “reduction in sphingosine kinase 1 activity” value [2] was “did not inhibit; also recorded: does not inhibit; also recorded: no inhibitory activity”. The palmitate oxidation (soleus muscle strips) was “not affected”, the “Cer 18:1/16:0 content of cerebellum” value (cerebellum; Chow + P053) was 3.617 and 2.396 and 2.239 and 1.878 and 1.763 and 7.091 and 4.235 and 4.186 and 2.745 and 2.729 and the “Cer 18:1/18:0 content of cerebellum” value (cerebellum; Chow + P053) was 141.97 and 85.5119 and 108.595 and 104.792 and 97.4561 and 431.392 and 196.381 and 275.197 and 135.779 and 146.615. For the same compound, the “Cer 18:1/20:0 content of cerebellum” value (cerebellum; Chow + P053) was 10.8793 and 8.155 and 10.4755 and 10.5072 and 6.176 and 36.1314 and 20.5959 and 26.7359 and 12.6268 and 16.6128, the “Cer 18:1/22:0 content of cerebellum” value (cerebellum; Chow + P053) was 14.5276 and 15.0246 and 22.6132 and 25.2761 and 10.65 and 51.7937 and 37.5604 and 49.7318 and 29.1858 and 28.3511 and the “Cer 18:1/24:0 content of cerebellum” value (cerebellum; Chow + P053) was 25.164 and 39.1513 and 61.4338 and 64.1688 and 24.2127 and 137.911 and 88.346 and 158.631 and 89.2495 and 92.5091. For the same compound, the “Cer 18:1/24:1 content of cerebellum” value (cerebellum; Chow + P053) was 194.92 and 106.297 and 150.541 and 182.076 and 61.3337 and 311.08 and 260.185 and 253.268 and 147.127 and 119.244, the “Cer 18:2/18:0 content of cerebellum” value (cerebellum; Chow + P053) was 6.1678 and 7.469 and 7.847 and 9.952 and 5.015 and 15.2517 and 13.7543 and 19.4608 and 12.754 and 10.8001 and the “HexCer 16:0 content of cerebellum” value (cerebellum; Chow + P053) was 2.618 and 11.905 and 12.0787 and 17.3566 and 8.981 and 4.913 and 10.616 and 11.083 and 11.1713 and 10.2043. The “HexCer 18:0 content of cerebellum” value (cerebellum; Chow + P053) was 28.8093 and 286.922 and 231.007 and 375.961 and 165.705 and 81.8257 and 140.616 and 234.577 and 281.805 and 232.737, the “HexCer 18:1 content of cerebellum” value (cerebellum; Chow + P053) was 4.066 and 35.919 and 27.4449 and 39.8082 and 28.3147 and 12.0017 and 18.6127 and 33.0051 and 39.5714 and 38.2232 and the “HexCer 20:0 content of cerebellum” value (cerebellum; Chow + P053) was 5.379 and 62.6592 and 42.0891 and 61.8563 and 40.4642 and 16.7817 and 19.6222 and 44.5602 and 56.0811 and 52.6344. For the same compound, the “HexCer 20:1 content of cerebellum” value (cerebellum; Chow + P053) was 0.8503 and 3.88 and 2.4108 and 3.569 and 3.668 and 1.176 and 1.073 and 2.879 and 4.092 and 4.073, the “HexCer 22:0 content of cerebellum” value (cerebellum; Chow + P053) was 103.858 and 933.202 and 709.42 and 853.076 and 744.844 and 421.086 and 403.774 and 821.636 and 996.669 and 1011.42 and the “HexCer 22:1 content of cerebellum” value (cerebellum; Chow + P053) was 67.4582 and 171.007 and 113.764 and 201.906 and 106.093 and 35.9387 and 77.6418 and 92.6997 and 107.257 and 90.5981. For the same compound, the “HexCer 24:0 content of cerebellum” value (cerebellum; Chow + P053) was 564.043 and 4618.59 and 3773.48 and 4286.71 and 3653.78 and 2395.46 and 2157.01 and 3975.05 and 5039.63 and 4758.34, the “HexCer 24:1 content of cerebellum” value (cerebellum; Chow + P053) was 3233.35 and 7019.2 and 5377.98 and 7770.21 and 6449.16 and 3511.89 and 4048.72 and 5184.76 and 6290.34 and 5656.27 and the “SM 32:1 content of cerebellum” value (cerebellum; Chow + P053) was 7.744 and 10.8885 and 9.082 and 12.3443 and 9.858 and 7.664 and 8.692 and 8.551 and 8.187 and 8.4615. For the same compound, the “SM 34:1 content of cerebellum” value (cerebellum; Chow + P053) was 82.5407 and 146.305 and 94.5019 and 129.483 and 151.913 and 73.8551 and 80.0167 and 90.7654 and 102.782 and 113.569, the “SM 34:2 content of cerebellum” value (cerebellum; Chow + P053) was 7.207 and 9.9108 and 8.648 and 11.4512 and 8.062 and 5.446 and 4.538 and 7.185 and 8.297 and 8.329 and the “SM 36:1 content of cerebellum” value (cerebellum; Chow + P053) was 194.844 and 464.875 and 291.749 and 380.257 and 596.135 and 225.303 and 199.676 and 294.675 and 315.392 and 396.468. For the same compound, the “SM 36:2 content of cerebellum” value (cerebellum; Chow + P053) was 59.5005 and 77.3429 and 59.1592 and 95.459 and 61.3204 and 42.7823 and 27.3474 and 61.4896 and 55.0172 and 56.8047, the “SM 38:1 content of cerebellum” value (cerebellum; Chow + P053) was 38.445 and 174.02 and 119.141 and 145.805 and 204.374 and 106.701 and 86.1831 and 141.777 and 157.803 and 199.243 and the “SM 38:2 content of cerebellum” value (cerebellum; Chow + P053) was 7.207 and 11.8634 and 6.682 and 10.3765 and 10.2552 and 3.609 and 2.903 and 5.065 and 7.083 and 7.8. For the same compound, the “SM 40:1 content of cerebellum” value (cerebellum; Chow + P053) was 51.2464 and 304.001 and 220.117 and 327.562 and 242.07 and 125.331 and 158.353 and 223.684 and 258.853 and 295.067, the “SM 40:2 content of cerebellum” value (cerebellum; Chow + P053) was 51.3559 and 98.4003 and 64.6125 and 113.428 and 67.3016 and 27.1328 and 51.0354 and 51.6641 and 60.1105 and 65.3939 and the “SM 42:1 content of cerebellum” value (cerebellum; Chow + P053) was 47.6271 and 371.292 and 288.623 and 388.513 and 255.841 and 158.489 and 203.273 and 296.49 and 332.331 and 358.331. For the same compound, the “SM 42:2 content of cerebellum” value (cerebellum; Chow + P053) was 660.19 and 1132.13 and 807.257 and 1283.01 and 802.501 and 434.477 and 634.337 and 659.388 and 719.281 and 714.687, the “Cer 18:1/16:0 content of cerebellum” value (cerebellum; HFD + P053) was 2.762 and 1.437 and 5.744 and 2.262 and 3.928 and 1.548 and 1.88 and 7.07 and 1.652 and 5.347 and the “Cer 18:1/18:0 content of cerebellum” value (cerebellum; HFD + P053) was 128.546 and 82.2707 and 288.623 and 116.318 and 172.743 and 86.572 and 112.409 and 311.979 and 100.825 and 239.53.

Reference: publication PMC6104039 (Nature Communications, 2018)
